For data set [1], the system named is tyrosinase. Particulars: cited from earlier work; for IC50: read-out: IC50 tyrosinase inhibition (literature).
Data set [2] concerns Tyrosinase from Agaricus bisporus. The experiment in a line: Tyrosinase inhibition assay (L-tyrosine substrate). The data set is classed as biochemical. Particulars: for % Inhib (150 µM) of tyrosinase activity: 150 µM compound, n = 3. How it is done: Sodium phosphate monobasic monohydrate was obtained from Fluka (Buchs, Switzerland). Sodium phosphate dibasic anhydrous and methanol were obtained from Carlo Erba Reagents (Val-de-Reuil, France). Imidazole, p-nitroso dimethylaniline (RNO), and nitro blue tetrazolium chloride (NBT) were purchased from Alfa Aesar (Ward Hill, MA, USA).
Tyrosinase inhibition assays were carried out as described in Rosa et al.. Briefly, 25 μL of tyrosinase enzyme solution (135 U/mL), 25 μL of ten serial concentrations of the compounds (dissolved in 0.1 M phosphate buffer pH 6.8 containing no more than 2.5% DMSO, yielding final concentrations of 0.3–150 μM), and 100 μL phosphate buffer were mixed in a 96-well plate and incubated at 37 ± 2 °C for 20 min. Then, 50 μL of 1.66 mM of tyrosine solution in 0.1 M phosphate buffer (pH 6.8) were added. Enzyme activity was measured at 490 nm every 10 min for 30 min in a Bio-Rad Model 680 Microplate Reader (Bio-Rad Laboratories, Inc., Hercules, CA, USA). In cases where the samples were very active at the minimum concentration tested, lower concentration ranges were assayed. […] The experiments were conducted in triplicate. For each concentration, enzyme activity was calculated as a percentage of the velocities compared to those of the assay using buffer without any inhibitor. […] The type of inhibition and inhibition parameters of the compounds, i.e., the Km and Vmax, were determined by Lineweaver–Burk plot analysis using various concentrations of L-tyrosine.

Data set [3] can be described thus: ROS assay for photoreactivity (singlet oxygen and superoxide anion generation). The data set is classed as physicochemical. The conditions noted are these: for ROS assay: superoxide anion (O2^•−) / ROS assay: singlet oxygen (^1O2): 200 µM final concentration, mean ± SEM, n = 2; for ROS assay: superoxide anion (O2^•−): cut-off O2^•− ≥ 20 = photoreactive; for ROS assay: singlet oxygen (^1O2): cut-off ^1O2 ≥ 25 = photoreactive; for Photoreactivity classification from ROS assay: photoreactive if SO ≥ 25 and/or SA ≥ 20. How it is done: In addition to light absorption, the generation of reactive species from chemicals following the absorption of UV-visible light is seen as a key determinant for causing direct phototoxic reactions. The ROS assay can be used as an in chemico screening tool for evaluating the photoreactivity of chemicals. […] These depigmenting agents were tested at 200 μM (final concentration) to identify precipitation, coloration, or any other interference in the reaction mixture.
The ROS assay was performed as previously described in Aguiar et al. and the OECD ROS assay for photoreactivity protocol. Stock solutions of all substances were prepared at 10 mM in DMSO or 20 mM sodium phosphate buffer (NaPB, pH 7.4) and used within the same day. SO generation was detected by spectrophotometric measurement of RNO bleaching, followed by a decrease in the absorbance of RNO at 440 nm. SA generation was detected by observing the reduction of NBT to NBT^+, the formation of which can be monitored spectrophotometrically at 560 nm. The depigmenting agents were tested at a final concentration of 200 μM. When precipitation was observable (using a microscope) before light exposure, a lower concentration (20 μM) of the depigmenting agents was tested.
Photoreactivity of the test substances was evaluated according to the result (mean of triplicate determinations) from the ROS assay: a test substance was classified as a photoreactive substance when an SO value of 25 or more and/or an SA value of 20 or more was measured; in turn, it was considered to be a non-photoreactive substance when values of less than 25 for SO and less than 20 for SA were recorded.

Data set [4] is described as follows: UV-visible spectral analysis, molar extinction coefficient (MEC). The data set is classed as physicochemical. Particulars: at 290 nm; for Absorbance (10 µg mL^−1): 10 µg mL^−1 in methanol or 20 mM NaPB pH 7.4, 10 mm path length. An excerpt: The phototoxic potential of chemicals is related to the photochemical properties of compounds, especially light absorption within the range 290–700 nm and the generation of reactive species following absorption of UV-visible light. […] The studied depigmenting agents contain in their molecular structures π systems (some of them conjugated), phenolic and/or hydroxyl, carbonyl, and amine groups. The absorption peaks observed in the UV-visible spectra can be assigned to π-π* and n-π* electronic transitions.
As the wavelength of maximum absorbance obtained for all compounds was below 290 nm, the MEC value for each depigmenting compound was calculated at this wavelength (Table 1).
UV-visible spectral analysis was conducted as previously described. The depigmenting agents were dissolved in methanol or 20 mM sodium phosphate buffer (NaPB, pH 7.4) at 10 μg/mL (final concentration). The UV-visible absorption spectra were analyzed using a Shimadzu UV-1700 spectrophotometer (Shimadzu Corp., Kyoto, Japan) and UV-transparent quartz cuvettes (Hellma, Müllheim, Germany) with a 10 mm path length. Each spectrum was corrected for solvent-specific baseline absorption. Molar extinction coefficients (MEC) were calculated using the highest absorption peaks between 290 and 700 nm at 10 μM.

In data set [5] the test system is B-16V melanocytes. The data set can be described thus: Cell viability (PrestoBlue) in B-16V melanocytes. The conditions noted are these: 48 h treatment, 10–1000 µM in water. How it is done: (§1) Given that ABT is a glycosylated derivative of hydroquinone, there is a potential for the release of hydroquinone in vivo.
(§2) B-16V cells (DSMZ ACC-370, Braunschweig, Germany) were cultured in Dulbecco’s Modified Eagle’s Medium (DMEM) containing 3.7 g/L NaHCO3, 1.0 g/L d-glucose, 1 mM sodium pyruvate, and stable glutamine, supplemented with 10% (v/v) heat-inactivated fetal bovine serum (FBS), 50 U/mL penicillin, and 50 μg/mL streptomycin (all reagents from PAN-Biotech GmbH, Aidenbach, Germany). The cells were cultivated at 37 °C in a humidified atmosphere of 95% air and 5% CO2. Subculturing was performed twice a week, when the cells reached 70–80% confluence, through cell trypsinization with 0.25% Trypsin and 1 mM EDTA.4Na (PAN-Biotech GmbH, Aidenbach, Germany).
(§3) To evaluate cell viability, B-16V cells were seeded at a cell density of 3 × 10^4 cells/mL in 96-well plates and allowed to proliferate for 48 h. […] Then, PrestoBlue® reagent (Invitrogen, Waltham, MA, USA) was added to each well. When entering a living cell, the PrestoBlue® reagent is reduced from resazurin to resorufin, whose fluorescence is proportional to the number of metabolically active cells. Fluorescence was measured at an excitation/emission wavelength of 530/590 nm in an automated microplate reader (Synergy HT, Biotek Instruments Inc., Winooski, VT, USA).
(§4) GraphPad Prism 9.5.1 was used to fit non-linear regression to the data and calculate the IC50 values of depigmenting compounds for B-16V cell viability.

Data set [6] is described as follows: Cell viability (PrestoBlue) in B-16V melanocytes. Particulars: mouse, B-16V melanocytes, IC50 for B-16V cell viability, 48 h treatment, 0–300 µM in DMSO. How it is done: as §1, §2, §3, §4
The test system of data set [7] is B16 mouse melanoma cells. Particulars: cited from earlier work.

Several values for one entry are separate records, joined by “and”; a condition that tells them apart may be missing. Equal entries are not always repeated. Where two headings read alike, the source gives them in different places.

Here are results for eight compounds from PMC10820089, “Comparative Studies on the Photoreactivity, Efficacy, and Safety of Depigmenting Agents” (Pharmaceuticals, 2023).

The term IC50 denotes the midpoint of a concentration-inhibition curve.

Turning to `OC[C@H]1O[C@H](Oc2ccc(O)cc2)[C@H](O)[C@@H](O)[C@@H]1O` [ABT, α-arbutin], the “Percentage of tyrosinase inhibition (literature)” value in data set [1] (at 125 µM) is listed as “≈ 30%”. The “% Inhib (150 µM) of tyrosinase activity” value in data set [2] worked out at 27.04%. Besides, in data set [3], the “ROS assay: superoxide anion (O2^•−)” value turned out to be 0 ± 0, the “ROS assay: singlet oxygen (^1O2)” value came out at 19 ± 1 and the “Photoreactivity classification from ROS assay” value (“Photoreactivity classification” for short) was “cannot be classified as photoreactive”. For the same compound, the “Photoreactivity classification” value in data set [3] (listed as α-arbutin) was “non-photoreactive”. In data set [4], the “MEC (molar extinction coefficient)” value was “ε = 2004 L mol^−1 cm^−1” and the “Absorbance (10 µg mL^−1)” value worked out at 0.0736.
Take `NC[C@H]1CC[C@H](C(=O)O)CC1` [TA, tranexamic acid, reference compound]: in data set [5], the “Effect on B-16V cell viability” value is given as “did not interfere with cell viability”. Also, the “% Inhib (150 µM) of tyrosinase activity” value in data set [2] came to 13.20%. In data set [4], the “MEC (molar extinction coefficient)” value is “ε = 380 L mol^−1 cm^−1” and the “Absorbance (10 µg mL^−1)” value amounted to 0.0242.
On to `O=C1O[C@H]([C@@H](O)CO)C(O)=C1O` [AA, ascorbic acid, reference compound], for which the “Effect on B-16V cell viability” value in data set [5] is listed as “did not interfere with cell viability”. Further, the “Prevention of chromophore formation in tyrosinase assay” value in data set [2] (150 µM, cannot be interpreted uniquely as tyrosinase inhibition) is listed as 58.70%. Further, in data set [3], the “ROS assay: superoxide anion (O2^•−)” value was determined as 26 and the “ROS assay: singlet oxygen (^1O2)” value was found to be 671. Also, in data set [4], the “MEC (molar extinction coefficient)” value is “ε = 2793 L mol^−1 cm^−1” and the “Absorbance (10 µg mL^−1)” value was determined as 0.1586.
Consider `O=C1O[C@H]([C@@H](O)CO)C(O)=C1O[C@H]1O[C@H](CO)[C@@H](O)[C@H](O)[C@H]1O` [AA-2G, ascorbyl glucoside], for which the “% Inhib (150 µM) of tyrosinase activity” value in data set [2] turned out to be 11.17%. In addition, in data set [3], the “ROS assay: superoxide anion (O2^•−)” value is on record as 1 ± 0, the “ROS assay: singlet oxygen (^1O2)” value is listed as 1 ± 1 and the “Photoreactivity classification” value is listed as “non-photoreactive”. Further, in data set [4], the “MEC (molar extinction coefficient)” value is given as “ε = 1025 L mol^−1 cm^−1” and the “Absorbance (10 µg mL^−1)” value was 0.0303.
`C=C[C@@](C)(/C=C/c1ccc(O)cc1)CCC=C(C)C` [BAK, bakuchiol]: the IC50 at 48 h in data set [6] turned out to be 43.4 ± 0.9 µM. Also, the IC50 in data set [1] (at 1 mM of L-tyrosine) is 37.2 ± 5.18 µM. Also, in data set [2], the “% Inhib (150 µM) of tyrosinase activity” value was determined as 52.59%. In addition, in data set [3], the “ROS assay: superoxide anion (O2^•−)” value was “inconclusive” and the “ROS assay: singlet oxygen (^1O2)” value was “inconclusive”. In addition, the “Solubility / precipitation in ROS assay reaction mixture” value in data set [3] (DMSO or 20 mM NaPB pH 7.4, reaction mixture for SO and SA, 200 µM, lowest concentration 20 µM) is reported as “showed precipitation in the reaction mixture”. The “Absorbance (10 µg mL^−1)” value in data set [4] was 0.2203.
Turning to `CCCCc1ccc(O)cc1O` [4BR, 4-butylresorcinol], in data set [6], the IC50 at 48 h stood at 97.6 ± 11.6 µM. For the same compound, the half-maximal inhibitory concentration (IC50) in data set [1] was 21 µM and 13.5 µM. The “% Inhib (150 µM) of tyrosinase activity” value in data set [2] came out at 100%. The “Type of tyrosinase inhibition (Lineweaver-Burk plot)” value in data set [2] (Vmax constant, Km increases with inhibitor concentration) was “competitive inhibitor”. Moreover, in data set [3], the “ROS assay: superoxide anion (O2^•−)” value is 13 ± 1, the “ROS assay: singlet oxygen (^1O2)” value was found to be 1 ± 0 and the “Photoreactivity classification” value is recorded as “non-photoreactive”. In addition, in data set [4], the “MEC (molar extinction coefficient)” value is reported as “ε = 3471 L mol^−1 cm^−1” and the “Absorbance (10 µg mL^−1)” value was 0.2088.
Regarding `Oc1ccc(O)cc1` [hydroquinone], in data set [7], the “Concentration achieving complete growth inhibition” value is listed as 1.25 to 2.5 µg/mL and the “Concentration initiating growth inhibition” value was 0.625 µg/mL.
Turning to `O=c1cc(CO)occ1O` [Kojic acid, kojic acid, reference compound], in data set [2], the “% Inhib (150 µM) of tyrosinase activity” value stood at 99.15%.
